One experiment has as its system α-amylase. In words: α-amylase inhibitory activity assay (starch, DNS reagent). In kind it is biochemical. The note with it: mean ± SD (n = 3). The method, then: S1.3. Determination of α-amylase inhibitory activity
Phosphate buffer (20 mM, pH 6.9, containing 6 mM NaCl) was used as the […]
µL, 1%, w/v) were mixed and incubated in a 96-well microplate at 37 °C for 10 min.
Then, α-amylase solution (50 µL, 0.2 U/mL) was added and the compound was incubated at 37 °C for an additional 10 min. The reaction was stopped by addition of […]
microplate was immediately heated in 95 °C water bath for 10 min. When the reaction solution cooled to room temperature, allsamples were diluted by adding distilled water (50 µL), and then their absorbance was measured using a microplate reader at […]
starch solution) at 540 nm, thus the inhibitory activity was calculated as (Acontrol-Asample)/Acontrol×100%, in which Asample was the absorbance of the sample and Acontrol was the absorbance of the phosphate buffer control without test samples. Acarbose was used as the positive control.

Experiment [1] is described as follows: ABTS radical scavenging assay. Conditions: mean ± SD (n = 3).
Experiment [2] has as its target fatty acid synthase (FAS) (Gallus gallus, UniProt P12276). As to the kind of experiment: FAS inhibitory activity assay (NADPH absorbance at 340 nm).
Description: Determination of FAS inhibitory activity
diluted with potassium phosphate buffer (0.1 M, pH 7.0). Sample solution (100 L, 20-2000 μM, 37 °C) and FAS substrates (1.8 mL, 37 °C) were mixed in a cuvette, and then FAS solution (100 L, 37 °C, isolated from chicken liver and kept in ice-bath before use) was added. The absorbance of reaction compound was monitored by a
UV-vis spectrophotometer at 340 nm in 1 min. The inhibitory effect was calculated by the following equation: FAS inhibition (%) = (Acontrol- Asample)/Acontrol×100%, where Acontrolrepresented the FAS activity in the control group (phosphate buffer instead of sample solution), Asamplerepresented the FAS activity in the sample groups. The FAS activity was calculated as (A0 - A1)/1 min, in which A0 was the absorbance of the
reaction compound when the FAS was added, and A1 was the absorbance of the
reaction compound after reaction 1 min. Orlistat was used as the positive control.
FAS substrates: 0.1 M potassium phosphate buffer (pH 7.0), 1 mM ethylene-diaminetetraacetic acid (EDTA), 1 mM dithiothreitol, 3 M acetyl-coenzyme A, 10 M methylmalonyl coenzyme A, 35 M NADPH.
Experiment [3] can be described thus: DPPH radical scavenging assay. Conditions: mean ± SD (n = 3), NA = no activity. The method, then: S1.4. DPPH radical scavenging assay
The DPPH radical scavenging assay was used to evaluate the antioxidant activity of compounds 1-10. In a 96-well microplate, 100 µL of DPPH solution (200 µM in ethanol) was added to 100 µL sample in ethanol at graded concentrations ranging from 7 to 500 µM. The compound was incubated in the dark at room temperature for […]

A further experiment has as its system α-glucosidase. In words: α-glucosidase inhibitory activity assay (pNPG substrate). The experiment is classed as biochemical, yeast. Conditions: for α-Glucosidase Inhibition at 0.1 mM: mean ± SD (n = 3), NA = no activity; for α-glucosidase inhibitory activity (in words): compared with positive control acarbose. The method, then:
S1. Determination of bioactivities […]
S1.2. Determination of α-glucosidase inhibitory activity […]
diluted with phosphate buffer (0.1 M, pH 6.8). […]
and 4-nitrophenyl α-D-glucopyranoside (pNPG) solution (50 µL, 5 mM) were mixed
(1 picture or pasted object on this page, not shown here) […]
and incubated in a 96-well microplate at37 °C for 5 min. α-Glucosidase from yeast (50 µL, 0.2 U/mL) was added and incubated at 37 °C for another 30 min. Finally, 50 µL of Na2CO3 (1M) was added to terminate the reaction. The absorbance of compound was measured using a microplate reader at a wavelength 405 nm. The background absorbance (phosphate buffer instead of substrate pNPG) of all samples […]
calculated by the following equation: α-glucosidase inhibition (%) = (Acontrol-Asample)/Acontrol×100%, where Acontrolrepresented the absorbance of phosphate buffer control without testsamples, Asample represented the absorbance of test samples.
Acarbose was used as the positive control. […]

Where two headings read alike, the source gives them in different places.

Chain of fatty acid synthase (FAS) (P12276 2-2512 limits assumed): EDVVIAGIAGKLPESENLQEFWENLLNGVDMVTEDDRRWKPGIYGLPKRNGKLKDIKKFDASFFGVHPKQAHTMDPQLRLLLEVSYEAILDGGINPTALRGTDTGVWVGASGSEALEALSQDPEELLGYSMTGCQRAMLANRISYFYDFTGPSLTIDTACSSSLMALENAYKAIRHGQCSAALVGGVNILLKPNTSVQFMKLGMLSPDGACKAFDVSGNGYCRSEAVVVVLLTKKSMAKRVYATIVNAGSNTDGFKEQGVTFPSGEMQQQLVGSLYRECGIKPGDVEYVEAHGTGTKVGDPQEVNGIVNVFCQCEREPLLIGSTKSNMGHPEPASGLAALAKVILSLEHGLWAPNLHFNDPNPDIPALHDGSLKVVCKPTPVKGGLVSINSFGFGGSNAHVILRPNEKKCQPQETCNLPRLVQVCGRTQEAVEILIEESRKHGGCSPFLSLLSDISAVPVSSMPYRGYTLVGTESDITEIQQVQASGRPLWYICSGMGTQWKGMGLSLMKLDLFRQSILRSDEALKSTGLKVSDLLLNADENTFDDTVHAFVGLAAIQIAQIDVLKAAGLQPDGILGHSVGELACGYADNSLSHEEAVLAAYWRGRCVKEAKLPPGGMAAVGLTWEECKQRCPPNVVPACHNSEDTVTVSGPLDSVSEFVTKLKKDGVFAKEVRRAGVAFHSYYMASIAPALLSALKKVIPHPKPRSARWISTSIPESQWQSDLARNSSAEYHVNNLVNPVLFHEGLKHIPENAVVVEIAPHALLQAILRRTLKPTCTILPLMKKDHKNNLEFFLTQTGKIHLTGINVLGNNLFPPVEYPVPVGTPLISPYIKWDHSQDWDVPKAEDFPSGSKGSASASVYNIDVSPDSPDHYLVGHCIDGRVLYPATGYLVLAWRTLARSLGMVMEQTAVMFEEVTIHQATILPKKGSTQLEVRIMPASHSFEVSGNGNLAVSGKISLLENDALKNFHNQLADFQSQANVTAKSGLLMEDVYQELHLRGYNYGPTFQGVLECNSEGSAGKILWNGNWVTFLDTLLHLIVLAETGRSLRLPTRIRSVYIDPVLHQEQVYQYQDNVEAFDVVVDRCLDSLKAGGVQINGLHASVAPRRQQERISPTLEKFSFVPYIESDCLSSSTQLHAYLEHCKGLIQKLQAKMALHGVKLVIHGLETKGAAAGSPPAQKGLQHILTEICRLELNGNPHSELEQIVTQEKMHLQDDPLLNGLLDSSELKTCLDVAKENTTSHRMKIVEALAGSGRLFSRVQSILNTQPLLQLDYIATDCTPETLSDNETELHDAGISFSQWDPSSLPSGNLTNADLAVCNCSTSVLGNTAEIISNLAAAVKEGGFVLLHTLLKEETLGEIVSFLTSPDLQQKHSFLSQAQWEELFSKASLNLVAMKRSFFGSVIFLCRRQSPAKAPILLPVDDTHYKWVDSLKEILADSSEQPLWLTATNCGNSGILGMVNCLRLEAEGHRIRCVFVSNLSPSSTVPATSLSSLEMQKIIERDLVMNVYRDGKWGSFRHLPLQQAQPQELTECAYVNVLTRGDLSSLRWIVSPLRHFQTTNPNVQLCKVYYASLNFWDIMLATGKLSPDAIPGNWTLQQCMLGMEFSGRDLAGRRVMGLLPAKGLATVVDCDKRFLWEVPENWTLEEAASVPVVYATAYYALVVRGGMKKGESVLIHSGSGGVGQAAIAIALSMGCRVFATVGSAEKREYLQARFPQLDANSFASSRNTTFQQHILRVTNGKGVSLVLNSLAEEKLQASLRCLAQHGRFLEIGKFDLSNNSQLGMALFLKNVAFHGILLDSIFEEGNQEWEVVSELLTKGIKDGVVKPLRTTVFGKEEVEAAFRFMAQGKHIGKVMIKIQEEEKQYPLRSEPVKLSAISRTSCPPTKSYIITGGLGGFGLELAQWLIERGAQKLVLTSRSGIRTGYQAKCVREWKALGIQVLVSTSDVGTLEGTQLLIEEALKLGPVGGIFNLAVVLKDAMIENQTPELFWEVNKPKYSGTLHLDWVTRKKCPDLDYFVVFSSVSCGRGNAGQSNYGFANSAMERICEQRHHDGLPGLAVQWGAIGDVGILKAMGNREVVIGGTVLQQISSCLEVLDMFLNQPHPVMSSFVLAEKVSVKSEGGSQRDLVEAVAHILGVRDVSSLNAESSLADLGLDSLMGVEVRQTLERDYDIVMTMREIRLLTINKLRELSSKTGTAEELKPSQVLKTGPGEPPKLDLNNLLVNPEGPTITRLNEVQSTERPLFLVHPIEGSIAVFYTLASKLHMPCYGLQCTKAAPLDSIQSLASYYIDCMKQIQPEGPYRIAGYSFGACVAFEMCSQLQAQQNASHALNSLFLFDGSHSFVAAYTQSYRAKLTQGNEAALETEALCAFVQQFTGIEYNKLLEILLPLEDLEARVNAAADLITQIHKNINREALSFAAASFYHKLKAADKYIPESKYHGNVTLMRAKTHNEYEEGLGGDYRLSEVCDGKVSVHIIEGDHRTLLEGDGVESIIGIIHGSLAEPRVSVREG

In the case of `CC/C=C/CCO[C@@H]1O[C@H](COC(=O)C=Cc2ccc(O)cc2)[C@@H](O)[C@H](O[C@@H]2O[C@@H](C)[C@H](O)[C@@H](O)[C@H]2O)[C@H]1O` [Compound 1], in the experiment on α-amylase, the “α-Amylase Inhibition at 0.1 mM” value was 27.9 ± 6.4 bc %. This molecule came in with an IC50 in experiment [1] of 5.65 ± 0.19 µM.

On to `C=C(C)CO[C@@H]1O[C@H](COC(=O)C=Cc2ccc(O)cc2)[C@@H](O)[C@H](O[C@@H]2O[C@@H](C)[C@H](O)[C@@H](O)[C@H]2O)[C@H]1O` [Compound 2], for which the half-maximal inhibitory concentration (IC50) in experiment [2] (read-out: FAS IC50, mean ± SD (n = 3), NA = no activity, FAS isolated from chicken liver) came to 4.1 ± 0.12 µM; in experiment [1] it was 103 ± 4 µM. Besides, the “α-Amylase Inhibition at 0.1 mM” value with α-amylase turned out to be 24.0 ± 1.5 bc %.

`C[C@@H]1O[C@@H](O[C@H]2[C@H](O)[C@@H](COC(=O)C=Cc3ccc(O)cc3)OC(O)[C@@H]2O)[C@H](O)[C@H](O)[C@H]1O` (some centres unmarked) [Compound 3]: the figures for the IC50 in experiment [2], in experiment [3] and in experiment [1] were 6.25 ± 0.2 µM, above 250 µM and 12.04 ± 0.08 µM, respectively. Moreover, in the experiment with α-amylase, the “α-Amylase Inhibition at 0.1 mM” value was 29.8 ± 1.8 bc %.

For the molecule `CC1OC(OC2C(O)C(O)OC(CO)C2OC(=O)C=Cc2ccc(O)cc2)C(O)C(O)C1O` (centres unmarked) [Compound 4], the IC50 in experiment [2] was found to be 10.5 ± 0.32 µM; in experiment [1], 11.2 ± 0.4 µM. Moreover, the “α-Amylase Inhibition at 0.1 mM” value in the experiment on α-amylase turned out to be 25.6 ± 1.0 bc %.

With `C[C@@H]1O[C@@H](O[C@@H]2[C@@H](O)[C@@H](O)[C@H](O[C@H]3[C@H](O)[C@@H](COC(=O)C=Cc4ccc(O)cc4)OC(O)[C@@H]3O)O[C@H]2C)[C@H](O)[C@H](O)[C@H]1O` (some centres unmarked) [Compound 5], the half-maximal inhibitory concentration (IC50) in experiment [2] is 9.75 ± 0.24 µM; in experiment [3] it was above 250 µM; in experiment [1] it was 15.5 ± 0.36 µM. The “α-Amylase Inhibition at 0.1 mM” value in the experiment with α-amylase stood at 26.5 ± 4.0 bc %.

In the case of `C[C@@H]1O[C@@H](O[C@H]2[C@H](OC(=O)/C=C/c3ccc(O)c(O)c3)[C@@H](CO)OC(O)[C@@H]2O)[C@H](O)[C@H](O)[C@H]1O` (stereo partly drawn) [Compound 6, 3-O-(α-L-rhamnopyranosyl)-4-O-(trans-caffeoyl)-D-glucopyranose], in the experiment on α-amylase, the “α-Amylase Inhibition at 0.1 mM” value is 23.0 ± 0.7 c %. For the same molecule, the IC50 in experiment [3] was 46.7 ± 1.58 µM; in experiment [1], 17 ± 0.45 µM.

In turn, `O=c1c(O[C@@H]2O[C@H](CO)[C@@H](O)[C@H](O)[C@H]2O)c(-c2ccc(O)cc2)oc2cc(O[C@@H]3O[C@H](CO)[C@@H](O)[C@H](O)[C@H]3O)cc(O)c12` [Compound 7, kaempferol 3,7-diglucoside] displayed an IC50 in experiment [2] of 8.1 ± 0.37 µM. For the same molecule, the “α-Amylase Inhibition at 0.1 mM” value in the experiment on α-amylase is 31.8 ± 0.5 b %. Also, in the experiment with α-glucosidase, the “α-Glucosidase Inhibition at 0.1 mM” value was 15.6 ± 0.9 c %; the “α-glucosidase inhibitory activity (in words)” value was “moderate and weaker than acarbose”. The molecule further gave an IC50 in experiment [1] of 9.34 ± 0.04 µM.

Take `COc1cc([C@H]2c3cc(O[C@@H]4O[C@H](CO)[C@@H](O)[C@H](O)[C@H]4O)c(OC)cc3C[C@@](O)(CO)[C@@H]2CO)ccc1O` [Compound 8, (+)-cycloolivil 6-O-β-D-glucopyranoside]: the IC50 in experiment [2] is 8.01 ± 0.26 µM; in experiment [3] it was above 250 µM; in experiment [1], 29.1 ± 1.11 µM. In addition, in the experiment with α-amylase, the “α-Amylase Inhibition at 0.1 mM” value is 28.5 ± 2.7 bc %.

For `COC(=O)C=Cc1ccc(O)cc1` [Compound 9], the values for the IC50 in experiment [2], in experiment [3] and in experiment [1] were 15.4 ± 0.42 µM, above 250 µM and 8.78 ± 0.09 µM, respectively. Besides, the “α-Amylase Inhibition at 0.1 mM” value in the experiment with α-amylase turned out to be 29.5 ± 0.6 bc %. Also, the “α-Glucosidase Inhibition at 0.1 mM” value in the experiment with α-glucosidase is recorded as 33.8 ± 2.9 b %. Moreover, the “α-glucosidase inhibitory activity (in words)” value with α-glucosidase was “moderate and weaker than acarbose”.

Take `OCCc1ccc(O)cc1` [Compound 10, 4-hydroxyphenylethanol]: in the experiment on α-amylase, the “α-Amylase Inhibition at 0.1 mM” value is listed as 16.2 ± 5.0 d %. The molecule also had an IC50 in experiment [1] of 3.41 ± 0.08 µM.

Turning to `O=C1O[C@H]([C@@H](O)CO)C(O)=C1O` [L-(+)-ascorbic acid, reference compound], the IC50 in experiment [3] amounted to 13.66 ± 0.13 µM; in experiment [1], 10.1 ± 0.19 µM.

The values above are taken from article PMC9822135, “Chemical Constituents from the Leaves of Ligustrum robustum and Their Bioactivities” (Molecules, 2023).
